Measured values: patent US6096770A, “Anthranilic acid analogs” (American Home Products Corporation, priority 1998, dated 2000)
Read-outs that look alike come from different tables or passages of the source.

Experiments:
[1] = tested on: Isolated Rat Bladder Strips; experiment: Inhibition of Contractions in Isolated Rat Bladder Strips (15 mM KCl-enhanced contractile activity); type: tissue-based, Sprague-Dawley rats; conditions: for IC50: 0.5 h, 15 mM KCl, 37 deg. C., pH 7.4, 30 minute challenge, read-out: IC50 Bladder (B): concentration required to elicit 50% inhibition of pre-drug contractile activity
Description: Sprague-Dawley rats (150-200 g) are rendered unconscious by CO2 asphyxiation and then euthanized by cervical dislocation. […] The bladder is opened and then cut into strips 1-2 mm in width and 7-10 mm in length. The strips are subsequently suspended in a 10 mL tissue bath under an initial resting tension of 1.5 g. The strips are held in place by two surgical clips one of which is attached to a fixed hook while the other is attached to an isometric force transducer. […] The carbachol is then washed out and the tissue allowed to relax to its resting level of activity. Following a further 30 min period of recovery an additional 15 mM KCl are introduced into the tissue bath. […] Following stabilization of this enhanced level of contractile activity, incremental increases in the concentration of test compound or vehicle are introduced into the tissue bath. Contractile activity is measured for each compound or vehicle concentration during the last minute of a 30 minute challenge.

Aorta = experiment: Inhibition of contractions in aorta (indication of selectivity, Table I); type: cell-based; conditions: for IC50 (A)/IC50 (B): selectivity ratio aorta / bladder

## O=C(Nc1ccccc1C(=O)O)C1=C(c2ccc(C(F)(F)F)cc2)CCC1 [Example 1, 2-{[2-(4-Trifluoromethyl-phenyl)-cyclopent-1-enecarbonyl]-amino}-benzoic acid]
[1]; isolated rat bladder strips
  IC50: 11 ± 4.04 µM

## O=C(O)c1ccccc1NC(=O)c1ncoc1-c1ccc(C(F)(F)F)cc1 [Example 2, 2-{[5-(4-Trifluoromethyl-phenyl)-oxazole-4-carbonyl]-amino}-benzoic acid]
[1]; isolated rat bladder strips
  IC50: 17.9 ± 5.8 µM

## Cc1noc(-c2ccc(C(F)(F)F)cc2)c1C(=O)Nc1ccccc1C(=O)O [Example 4, 2-{[3-Methyl-5-(4-trifluoromethyl-phenyl)-isoxazole-4-carbonyl]-amino}-benzoic acid]
[1]; isolated rat bladder strips
  IC50: 11.9 ± 3.95 µM

## O=C([O-])c1ccccc1NC(=O)c1ncoc1-c1ccc(C(F)(F)F)cc1.[Li+] [Example 3, 2-{[5-(4-Trifluoromethyl-phenyl)-oxazole-4-carbonyl]-amino}-benzoic acid lithium salt]
Aorta
  IC50: 7.35 ± 0.25 µM
  IC50 (A)/IC50 (B): 0.42
[1]; Rattus norvegicus, pH 7.4, isolated rat bladder strips
  IC50: 17.5 ± 12.4 µM

## COc1ccc(/C=C/C(=O)Nc2ccccc2C(=O)O)cc1OC [Tranilast, reference compound]
Aorta
  IC50 (A)/IC50 (B): 1.08
[1]; in vitro, Table 1
  potency and bladder selectivity as smooth muscle relaxant (in words): not to be a potent or bladder selective smooth muscle relaxant
